This note sets out measurements from ChEMBL document CHEMBL4819101, “Design, synthesis and molecular docking studies of thymol based 1,2,3-triazole hybrids as thymidylate synthase inhibitors and apoptosis inducers against breast cancer cells” (Bioorg Med Chem, 2021).

Assay [1] has as its system MDA-MB-231. The assay can be described thus: cells. Particulars: Homo sapiens, MDA-MB-231, 72 h.
Description: Cytotoxicity against human MDA-MB-231 cells assessed as cell growth inhibition incubated for 72 hrs by MTT assay
The subject of assay [2] is MCF7. The assay can be described thus: cells. Particulars: Homo sapiens, MCF7, 72 h.
Description: Cytotoxicity against human MCF7 cells assessed as cell growth inhibition incubated for 72 hrs by MTT assay
The test system of assay [3] is MCF7. The assay can be described thus: Potency index, ratio of 5-fluorouracil IC50 to test compound IC50 for cytotoxicity against human MCF7 cells assessed as cell growth inhibition incubated for 72 hrs by MTT assay. In kind it is functional. On the technique in general: Formazan colour is commonly taken as a measure of viable cells.
For assay [4], the target named is T1, Thymidylate synthase (Homo sapiens, UniProt P04818). In words: Inhibition of thymidylate synthase (unknown origin).
T1 sequence (P04818 whole entry): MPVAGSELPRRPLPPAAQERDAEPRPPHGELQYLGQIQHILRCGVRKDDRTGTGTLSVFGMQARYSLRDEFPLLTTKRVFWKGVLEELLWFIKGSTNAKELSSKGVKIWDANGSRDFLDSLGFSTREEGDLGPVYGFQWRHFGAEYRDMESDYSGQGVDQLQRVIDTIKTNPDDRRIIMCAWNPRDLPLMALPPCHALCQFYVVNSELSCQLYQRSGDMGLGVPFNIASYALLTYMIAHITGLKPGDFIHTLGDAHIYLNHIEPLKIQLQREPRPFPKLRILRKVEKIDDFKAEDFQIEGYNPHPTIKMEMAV
Assay [5] concerns the target T1, Thymidylate synthase. The assay can be described thus: Inhibition of human thymidylate synthase expressed in Escherichia coli using 6R,S-tetrahydrofolate and dUMP as substrate by spectrophotometric analysis.
Assay [6] deals with MDA-MB-231. In words: Potency index, ratio of 5-fluorouracil IC50 to test compound IC50 for cytotoxicity against human MDA-MB-231 cells assessed as cell growth inhibition incubated for 72 hrs by MTT assay. The class given is functional.
Assay [7] has as its system MDA-MB-231. The assay can be described thus: Potency index, ratio of tamoxifen IC50 to test compound IC50 for cytotoxicity against human MDA-MB-231 cells assessed as cell growth inhibition incubated for 72 hrs by MTT assay. The class given is functional.
Assay [8] deals with MCF7. In words: Induction of cell cycle arrest in human MCF7 cells assessed as accumulation at sub-G1 phase at 10 uM incubated for 48 hrs by PI staining based flow cytometry analysis (reference value: 3.7 %). In kind it is functional. A general note: In flow cytometry, cells or beads pass a laser one at a time.
For assay [9], the system named is MCF7. In words: Induction of cell cycle arrest in human MCF7 cells assessed as increase in accumulation at G2/M phase at 10 uM incubated for 48 hrs by PI staining based flow cytometry analysis relative to control. In kind it is functional.
The next assay concerns HEK293. In words: Cytotoxicity against human HEK293 cells assessed as cell growth inhibition incubated for 72 hrs by MTT assay. Particulars: HEK293, 72 h. The class given is cell-based.
The subject of assay [10] is MCF7. In words: Induction of apoptosis in human MCF7 cells assessed as total apoptotic cells at 10 uM incubated for 48 hrs by annexin-V-FITC and PI staining based flow cytometry analysis (reference value: 8.3 %). In kind it is functional.

What is called IC50 is the midpoint of a concentration-inhibition curve. Take `Cc1ccc(C(C)C)c(OCc2cn(-c3ccccc3)nn2)c1`: the IC50 in the assay on MDA-MB-231 [1] stood at 45.1 µM; in the assay on MCF7 [2] it was 29.9 µM.
With `Cc1ccc(C(C)C)c(OCc2cn(-c3ccccc3Cl)nn2)c1`, the figures for the IC50 in the assay on MDA-MB-231 [1] and with MCF7 [2] were 26.6 µM and 15.6 µM, respectively. The “Ratio IC50” value in the assay with MCF7 [3] came to 1.2.
At Thymidylate synthase [4], `CCOC(=O)C1CCC(c2ccccc2)N1C(=O)c1cn(CCCNC(=O)C(F)(F)F)nn1` (stereo not given) gave an IC50 of 0.057 µM.
On to `Cc1cccc(-n2cc(COc3cc(C)ccc3C(C)C)nn2)c1`, for which the IC50 in the assay with MDA-MB-231 [1] stood at 31.2 µM; in the assay with MCF7 [2], 28.1 µM.
Consider `Cc1ccc(C(C)C)c(OCc2cn(-c3ccc(F)cc3)nn2)c1`, for which the IC50 with MDA-MB-231 [1] came to 32.6 µM; in the assay on MCF7 [2], 22.1 µM.
As for `Cc1ccc(C(C)C)c(OCc2cn(-c3cccc(C(=O)O)c3)nn2)c1`, the IC50 on Thymidylate synthase [5] was 4.27 µM; with MDA-MB-231 [1], 11.4 µM; in the assay with MCF7 [2], 10.3 µM. Besides, the “Ratio IC50” value is 2.2 with MDA-MB-231 [6], 1.3 in the assay with MDA-MB-231 [7] and 1.95 with MCF7 [3].
For the compound `Cc1ccc(C(C)C)c(OCc2cn(-c3cccc(Cl)c3)nn2)c1`, the results for the IC50 with MDA-MB-231 [1] and with MCF7 [2] were 45.2 µM and 32.1 µM, respectively.
As to `Cc1ccc(C(C)C)c(OCc2cn(-c3cccc4c(-n5cc(COc6cc(C)ccc6C(C)C)nn5)cccc34)nn2)c1`, the half-inhibitory concentration (IC50) in the assay with MDA-MB-231 [1] was found to be 22.1 µM; in the assay with MCF7 [2], 18.1 µM.
As to `Cc1ccc(C(C)C)c(OCc2cn(-c3ccc(O)cc3)nn2)c1`, the IC50 in the assay on MDA-MB-231 [1] worked out at 30.4 µM; in the assay on MCF7 [2] it was 45.4 µM.
The like results for `COc1ccc(-n2cc(COc3cc(C)ccc3C(C)C)nn2)cc1` were, in that order, 45.3 µM and 25.4 µM.
For the compound `Cc1ccc(C(C)C)c(OCc2cn(-c3ccccc3C)nn2)c1`, the IC50 on Thymidylate synthase [5] is 2.21 µM; in the assay with MDA-MB-231 [1] it was 10.5 µM; in the assay on MCF7 [2], 6.17 µM; in the assay with HEK293 it was above 50 µM. In addition, the “Ratio IC50” value in the assay with MDA-MB-231 [7] amounted to 1.42; in the assay with MCF7 [3], 3.2. In addition, the Activity was 21.4% in the assay on MCF7 [8], 37.3% with MCF7 [9] and 29.4% with MCF7 [10].
As for `Cc1ccc(C(C)C)c(OCc2cn(-c3ccc([N+](=O)[O-])cc3)nn2)c1`, the IC50 is 41 µM in the assay with MDA-MB-231 [1] and 32.2 µM in the assay on MCF7 [2].
The corresponding values for `O=c1[nH]cc(F)c(=O)[nH]1` [FLUOROURACIL] are 25.3 µM and 20.1 µM.
As for `Nc1nc2[nH]cc(CCc3ccc(C(=O)N[C@@H](CCC(=O)O)C(=O)O)cc3)c2c(=O)[nH]1` [PEMETREXED], the IC50 on Thymidylate synthase [5] turned out to be 5.39 µM.
Turning to `CC/C(=C(\c1ccccc1)c1ccc(OCCN(C)C)cc1)c1ccccc1` [TAMOXIFEN], the IC50 with MDA-MB-231 [1] is 15 µM; with MCF7 [2], 5.62 µM.
